Results from patent US6723897B2, “Methods for controlling gibberellin levels” (Monsanto Technology, LLC, priority 1998, dated 2004).

Legend:
[1] = tested on: wild-type soybean line A4922; experiment: Field trial of seed coating application rates, wild-type soybean
Procedure: GA3, GA3-3-acetate, GA5, GA9, and GA12 are evaluated in further field trials. […] The objectives of these tests are: 1) to determine if seed coatings, as compared to imbibition, of GA compounds facilitate rescue of constitutively GA-deficient transgenic dwarf soybeans (transgenic lines 719−2 plus 719+17) without causing elongation of wild-type soybeans (line A4922), and 2) to determine the seed treatment rate ranges for each of the selected GA compounds that would provide rescue of constitutively GA-deficient transgenic dwarf soybeans (transgenic lines 719−2 plus 719+17) without causing elongation of wild-type soybeans (line A4922).
Seeds are treated with GA3, GA5, GA9, GA12, and GA3-3-acetate at rates of 0, 0.1, 1, 10, and 100 μg/seed. These GA compounds are applied to the seeds using a Hege 11 seed treater (Hans-Ulrich Hege GmbH & Co., Waldenburg, Germany); 100% acetone is used as the carrier solvent. The amount of liquid introduced into the seed treater is six fluid ounces/100 lbs seed rate. In addition, GA12 is tested at 50 μg/seed. The untreated control (UTC) consisted of dry, untreated seeds. Seeds of constitutively GA-deficient transgenic dwarf soybean line 719 and wild-type A4922 are sown in both light and heavy soil. The planting depth is 0.5 to 1 inch (1.27 to 2.54 cm); watering is via drip irrigation. The experiment is carried out in three repetitions, using 25 seeds/plot (one five foot (152.4 cm) long row) for line 719, and 75 seeds/plot (two eight foot (243.8 cm) rows) for line A4922. Observations included total emergence, number of dwarfs not rescued, uniformity in plant height, average plant height, visual notes, and digital photos.
In all the experiments reported in Tables 17-24, treatments are replicated three times in a randomized block design. Data are analyzed using LSD (least significant difference) 0.05 probability using the PRM 5.0 Statistical Analysis Program (SAS Institute, North Carolina).

[2] = tested on: transgenic line 719 soybean; experiment: Field trial of seed coatings under soil compaction / different soils, GA-deficient soybean; assay type: in vivo, Glycine max; conditions: for Count (emergence) / Dwarfs (number of dwarfs not rescued) / Dwarfs (number not rescued): Line 719
[3] = tested on: non-transgenic soybean line A4922; experiment: Field trial of seed coatings under soil compaction / different soils, wild-type soybean; assay type: in vivo, Glycine max; conditions: for Count (emergence) / Height (total plant height): A4922
Procedure: The second trial (data reported in Tables 22-24) tested the precursors under conditions of soil compaction.
As noted above, the second trial tested the noted precursors under conditions of soil compaction. These experiments are performed in the same manner as in the first trial, except that the soil is compacted with an all-terrain vehicle.
“Height” equals total plant height in cm.

[4] = tested on: wild-type soybean line A3237; experiment: Experiment II second greenhouse test, seed imbibition, wild-type soybean; assay type: in vivo, Glycine max; conditions: 0.25 mg/ml; seeds imbibed 6 hours
Procedure: (The compounds are tested in Experiment I at only one concentration, i.e., 0.25 mg/ml). Test tubes contained […] of ethanol solution per tube. Final volumes are made up to 30 ml with deionized water. After shaking, the treatment solutions (15 ml each) are transferred to each of two 50 ml test tubes. […] Twenty seeds are used in each treatment. Dry seed, ethanol/water-imbibed seed (1% ethanol in water, v/v), and water-imbibed seeds are included as controls. Seeds are imbibed for 6 hours in the test solutions, then planted in bread pans containing Metromix 350 (The Scotts Company, Marysville, Ohio), and covered with 0.5″ Metro-mix. Covered pans are transferred to the greenhouse and subirrigated. Illumination is at a light intensity of 300-400 μmolm^−2s^−1 photosynthetic photon flux; 16 hours light/8 hours dark. Subsequent waterings are also through sub-irrigation until the test is terminated three weeks later. Observations included the number of dwarf, intermediate, and tall plants; plant height; uniformity of rescue; and any visual effects. Digital photographs are also taken.

[5] = Heavy soil - Loose, target rate 0.5 μg/seed, Table 23
[6] = Heavy soil - Loose, target rate 4.0 μg/seed, Table 23
[7] = Heavy soil - Loose, target rate 8.0 μg/seed, Table 23
[8] = Heavy soil - Loose, target rate 16.0 μg/seed, Table 23
[9] = Heavy soil - compacted, target rate 0.5 μg/seed, Table 23
[10] = Heavy soil - compacted, target rate 4.0 μg/seed, Table 23
[11] = Heavy soil - compacted, target rate 8.0 μg/seed, Table 23
[12] = Heavy soil - compacted, target rate 16.0 μg/seed, Table 23
[13] = Heavy soil - loose, target rate 0.5 μg/seed, Table 22
[14] = Heavy soil - loose, target rate 2.0 μg/seed, Table 22
[15] = Light soil - Compacted, target rate 0.5 μg/seed, Table 22
[16] = Light soil - Compacted, target rate 2.0 μg/seed, Table 22
[17] = Light soil - Loose, target rate 0.5 μg/seed, Table 24
[18] = Light soil - Loose, target rate 2.0 μg/seed, Table 24
[19] = Light soil - Loose, target rate 4.0 μg/seed, Table 24
[20] = Light soil - compacted, target rate 0.5 μg/seed, Table 24
[21] = Light soil - compacted, target rate 2.0 μg/seed, Table 24
[22] = Light soil - compacted, target rate 4.0 μg/seed, Table 24

SMILES: C=C1C[C@]23C[C@@]1(O)CC[C@H]2[C@@]12C=C[C@H](O)[C@@](C)(C(=O)O1)[C@H]2[C@@H]3C(=O)O [GA3, gibberellic acid]
- A4922 Height, cm, Heavy soil ([1]; 0.1 μg compound per seed): 5.7 efg cm
- A4922 Height, cm, Light soil ([1]; 0.1 μg compound per seed): 6.7 fg·cm
- No. A4922 Emerged, Heavy soil ([1]; 0.1 μg compound per seed): 28.0 c-g
- No. A4922 Emerged, Light soil ([1]; 0.1 μg compound per seed): 42.7 e-i
- A4922 Height, cm, Heavy soil ([1]; 1 μg compound per seed): 6.0 efg cm
- A4922 Height, cm, Light soil ([1]; 1 μg compound per seed): 8.3 ef cm
- No. A4922 Emerged, Heavy soil ([1]; 1 μg compound per seed): 16.7 g
- No. A4922 Emerged, Light soil ([1]; 1 μg compound per seed): 36.3 i
- A4922 Height, cm, Heavy soil ([1]; 10 μg compound per seed): 10.3 cm·days
- A4922 Height, cm, Light soil ([1]; 10 μg compound per seed): 12.7 cm·days
- No. A4922 Emerged, Heavy soil ([1]; 10 μg compound per seed): 28.7 c-g
- No. A4922 Emerged, Light soil ([1]; 10 μg compound per seed): 39.7 f-j
- A4922 Height, cm, Heavy soil ([1]; 100 μg compound per seed): 21.0 a cm
- A4922 Height, cm, Light soil ([1]; 100 μg compound per seed): 27.0 ab cm
- No. A4922 Emerged, Heavy soil ([1]; 100 μg compound per seed): 19.7 efg
- No. A4922 Emerged, Light soil ([1]; 100 μg compound per seed): 38.0 hi
- % Emergence, Heavy Soil-Loose ([2]; 0.1 μg/seed): 78%
- % Emergence, Light Soil-Compact ([2]; 0.1 μg/seed): 59%
- % Rescue, Heavy Soil-Loose ([2]; 0.1 μg/seed): 80%
- % Rescue, Light Soil-Compact ([2]; 0.1 μg/seed): 100%
- % Emergence, Heavy Soil-Loose ([2]; 2.0 μg/seed): 66%
- % Emergence, Light Soil-Compact ([2]; 2.0 μg/seed): 51%
- % Rescue, Heavy Soil-Loose ([2]; 2.0 μg/seed): 93%
- % Rescue, Light Soil-Compact ([2]; 2.0 μg/seed): 100%
- Count (emergence) [2, 5]: 27.3 cd
- Dwarfs (number of dwarfs not rescued) [2, 5]: 2.0 cde
- Count (emergence) [2, 6]: 14.3 f
- Dwarfs (number of dwarfs not rescued) [2, 6]: 0 e
- Count (emergence) [2, 7]: 35.3 abc
- Dwarfs (number of dwarfs not rescued) [2, 7]: 0.7 cde
- Count (emergence) [2, 8]: 30.7 bcd
- Dwarfs (number of dwarfs not rescued) [2, 8]: 0 e
- Count (emergence) [2, 9]: 7.7 efg
- Dwarfs (number of dwarfs not rescued) [2, 9]: 0.3 cd
- Dwarfs (number of dwarfs not rescued) ([2]; Heavy soil - compacted, target rate 2.0 μg/seed, Table 23): 0 days
- Count (emergence) [2, 10]: 3.3 fg
- Dwarfs (number of dwarfs not rescued) [2, 10]: 0 days
- Count (emergence) [2, 11]: 8.7 g·days
- Dwarfs (number of dwarfs not rescued) [2, 11]: 0 days
- Count (emergence) [2, 12]: 12.0 b-e
- Dwarfs (number of dwarfs not rescued) [2, 12]: 0 days
- Count (emergence) [2, 13]: 27 cd
- Dwarfs (number of dwarfs not rescued) [2, 13]: 2.0 cde
- Count (emergence) [2, 14]: 25 de
- Dwarfs (number of dwarfs not rescued) [2, 14]: 0.7 cde
- Count (emergence) [2, 15]: 22 efg
- Dwarfs (number of dwarfs not rescued) [2, 15]: 0 days
- Count (emergence) [2, 16]: 19 fg
- Dwarfs (number of dwarfs not rescued) [2, 16]: 0 days
- Count (emergence) [2, 17]: 45.0 ab
- Dwarfs (number not rescued) [2, 17]: 0 e
- Count (emergence) [2, 18]: 43.7 ab
- Dwarfs (number not rescued) [2, 18]: 0 e
- Count (emergence) [2, 19]: 39.3 b
- Dwarfs (number not rescued) [2, 19]: 0 e
- Count (emergence) [2, 20]: 1.2e+16 fg
- Dwarfs (number not rescued) [2, 20]: 0
- Count (emergence) [2, 21]: 19.3 fg
- Dwarfs (number not rescued) [2, 21]: 0
- Count (emergence) [2, 22]: 26.3 c-f
- Dwarfs (number not rescued) [2, 22]: 0
- rank of potential for rescuing GA-deficient dwarf soybeans without decreasing emergence ([2]; based on the last two field trials): GA9>GA5>GA3-3-acetate>GA3>GA12
- best to least selectivity order ([2]; emergence under soil compaction, margin of selectivity, rescue without overelongation, Table 22): GA9>GA5>GA3-3-acetate>GA3
- Count (emergence) [3, 5]: 25.0 cde
- Height (total plant height) [3, 5]: 5.0 efg cm
- Count (emergence) [3, 6]: 24.7 de
- Height (total plant height) [3, 6]: 8.7 a cm
- Count (emergence) [3, 7]: 29.3 a-d
- Height (total plant height) [3, 7]: 6.3 cde cm
- Count (emergence) [3, 8]: 24.7 dc
- Height (total plant height) [3, 8]: 7.0 bc cm
- Count (emergence) [3, 9]: 8.3 cd
- Height (total plant height) [3, 9]: 4.3 b-e cm
- Count (emergence) [3, 10]: 4.0 de
- Height (total plant height) [3, 10]: 8.0 a cm
- Count (emergence) [3, 11]: 9.7 a-d
- Height (total plant height) [3, 11]: 6.0 bc cm
- Count (emergence) [3, 12]: 6.3 cde
- Height (total plant height) [3, 12]: 6.7 ab cm
- Count (emergence) [3, 13]: 25 cde
- Height (total plant height) [3, 13]: 5.0 efg cm
- Count (emergence) [3, 14]: 21 ef
- Height (total plant height) [3, 14]: 6.7 bcd cm
- Count (emergence) [3, 15]: 28 bcd
- Height (total plant height) [3, 15]: 5.7 def cm
- Count (emergence) [3, 16]: 13 ef
- Height (total plant height) [3, 16]: 8.0 c cm
- Count (emergence) [3, 17]: 43.0 abc
- Height (total plant height) [3, 17]: 7.0 ef cm
- Count (emergence) [3, 18]: 38.3 bc
- Height (total plant height) [3, 18]: 9.0 cd cm
- Count (emergence) [3, 19]: 37.7 c
- Height (total plant height) [3, 19]: 10.3 b cm
- Count (emergence) [3, 20]: 28.3 bcd
- Height (total plant height) [3, 20]: 5.7 def cm
- Count (emergence) [3, 21]: 12.7 ef
- Height (total plant height) [3, 21]: 8.0 c cm
- Count (emergence) [3, 22]: 7.7 f
- Height (total plant height) [3, 22]: 10.3 b cm
- emergence at approximately equivalent biological response (height) ([3]; compacted soil, FIG. 40): 68%
- Significant Visual Observations on Line A3237 [4]: Poor emergence
